# According to article PMC7343540 (Journal of the American Chemical Society, 2020):
# pKd: −log10 of the molar value.
# Key:
# [1] = biological target: T1, AsqJ (Aspergillus nidulans, UniProt Q5AR53); assay: X-ray crystal structure; assay type: binding; settings: Fe, 2OG; formed in crystal from 1-H with 1 mM ascorbate and O2, 1.63 Å
# [2] = biological target: T1, AsqJ; assay: EPR titration of Mn2+-loaded AsqJ; assay type: binding
# T1 sequence (Q5AR53 109-416): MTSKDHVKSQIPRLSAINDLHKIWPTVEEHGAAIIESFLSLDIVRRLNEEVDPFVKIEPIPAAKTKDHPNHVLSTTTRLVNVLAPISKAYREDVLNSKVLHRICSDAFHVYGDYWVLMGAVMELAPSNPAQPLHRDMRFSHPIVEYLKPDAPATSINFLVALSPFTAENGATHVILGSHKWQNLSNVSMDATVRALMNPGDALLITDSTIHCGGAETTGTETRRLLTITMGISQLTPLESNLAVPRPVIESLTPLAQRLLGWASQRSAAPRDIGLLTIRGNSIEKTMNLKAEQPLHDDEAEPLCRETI
pKd [2],Structure (SMILES),X-ray crystal structure [1]
,"CN1C(=O)c2ccccc2NC(=O)[C@@]12O[C@H]2c1ccccc1 [3-H, cyclopenin]","revealed the presence of 3-H, and 2OG in the active site"
~5.30,CN1C(=O)c2ccccc2NC(=O)/C1=C/c1ccc(C(F)(F)F)cc1 [2-CF3],
